Experimental data reported in PubChem BioAssay AID1963828 (Molecular Pharmacology Branch, DTP, NCI, 2024).
pIC50: −log10 of the molar value.

System: 991263-137-R1-J2-PDC complex spheroid viability
Assay: Anticancer human tumor 991263-137-R1-J2-PDC patient-derived colon adenocarcinoma cell line growth inhibition [POLQ]
Settings: for pIC50: curve of first compound; for viability, T/C: stronger effect = lower value
Procedure, shortened: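 PDC + HUVEC + MSC complex spheroids; POLQ inhibitors ± partner drugs; top conc. at/near clinical Cmax, else 10 microM (SN-38 1 microM), half-log dilutions; 37 degrees C, 5% CO2.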

[1] = second compound 0.0316 µM, first compound 0.0316 µM
[2] = second compound 0.0316 µM, first compound 0.1 µM
[3] = second compound 0.0316 µM, first compound 0.316 µM
[4] = second compound 0.0316 µM, first compound 1 µM
[5] = second compound 0.0316 µM, first compound 3.16 µM
[6] = second compound 0.0316 µM, first compound 10 µM
[7] = second compound 0.1 µM, first compound 0.0316 µM
[8] = second compound 0.1 µM, first compound 0.1 µM
[9] = second compound 0.1 µM, first compound 0.316 µM
[10] = second compound 0.1 µM, first compound 1 µM
[11] = second compound 0.1 µM, first compound 3.16 µM
[12] = second compound 0.1 µM, first compound 10 µM
[13] = second compound 0.316 µM, first compound 0.0316 µM
[14] = second compound 0.316 µM, first compound 0.1 µM
[15] = second compound 0.316 µM, first compound 0.316 µM
[16] = second compound 0.316 µM, first compound 1 µM
[17] = second compound 0.316 µM, first compound 3.16 µM
[18] = second compound 0.316 µM, first compound 10 µM
[19] = second compound 1 µM, first compound 0.0316 µM
[20] = second compound 1 µM, first compound 0.1 µM
[21] = second compound 1 µM, first compound 0.316 µM
[22] = second compound 1 µM, first compound 1 µM
[23] = second compound 1 µM, first compound 3.16 µM
[24] = second compound 1 µM, first compound 10 µM
[25] = second compound 3.16 µM, first compound 0.0316 µM
[26] = second compound 3.16 µM, first compound 0.1 µM
[27] = second compound 3.16 µM, first compound 0.316 µM
[28] = second compound 3.16 µM, first compound 1 µM
[29] = second compound 3.16 µM, first compound 3.16 µM
[30] = second compound 3.16 µM, first compound 10 µM
[31] = second compound 10 µM, first compound 0.0316 µM
[32] = second compound 10 µM, first compound 0.1 µM
[33] = second compound 10 µM, first compound 0.316 µM
[34] = second compound 10 µM, first compound 1 µM
[35] = second compound 10 µM, first compound 3.16 µM
[36] = second compound 10 µM, first compound 10 µM
[37] = second compound 0.0316 µM, first compound 0.00316 µM
[38] = second compound 0.0316 µM, first compound 0.01 µM
[39] = second compound 0.1 µM, first compound 0.00316 µM
[40] = second compound 0.1 µM, first compound 0.01 µM
[41] = second compound 0.316 µM, first compound 0.00316 µM
[42] = second compound 0.316 µM, first compound 0.01 µM
[43] = second compound 1 µM, first compound 0.00316 µM
[44] = second compound 1 µM, first compound 0.01 µM
[45] = second compound 3.16 µM, first compound 0.00316 µM
[46] = second compound 3.16 µM, first compound 0.01 µM
[47] = second compound 10 µM, first compound 0.00316 µM
[48] = second compound 10 µM, first compound 0.01 µM
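Note: spheroids exposed to compounds for 7 days before readout.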
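Throughout, for viability, T/C: 100% = DMSO vehicle control viability.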

For `CNCc1ccc(-c2[nH]c3cc(F)cc4c3c2CCNC4=O)cc1` + Cc1cccc(N(C)C(=O)C2C(O)CCN2c2nc(C)cc(C(F)(F)F)c2C#N)c1, the pIC50 (second compound 0.0316 µM) was less than 5.00, the pIC50 (second compound 0.1 µM) was less than 5.00 and the pIC50 (second compound 0.316 µM) was less than 5.00. It also gave a pIC50 (second compound 1 µM) of less than 5.00, a pIC50 (second compound 3.16 µM) of less than 5.00 and a pIC50 (second compound 10 µM) of less than 5.00. The viability, T/C [1] was 107%, the viability, T/C [2] was 103% and the viability, T/C [3] was 118%. The viability, T/C [4] was 93.4%, the viability, T/C [5] was 86.2% and the viability, T/C [6] was 106%. It also gave a viability, T/C [7] of 110%, a viability, T/C [8] of 107% and a viability, T/C [9] of 101%. The viability, T/C [10] was 107%, the viability, T/C [11] was 105% and the viability, T/C [12] was 99.4%. For the same compound, the viability, T/C [13] was 108%, the viability, T/C [14] was 120% and the viability, T/C [15] was 77.2%. The viability, T/C [16] was 112%, the viability, T/C [17] was 110% and the viability, T/C [18] was 126%. The viability, T/C [19] was 115%, the viability, T/C [20] was 102% and the viability, T/C [21] was 102%. It also gave a viability, T/C [22] of 113%, a viability, T/C [23] of 127% and a viability, T/C [24] of 94.3%. It also gave a viability, T/C [25] of 112%, a viability, T/C [26] of 101% and a viability, T/C [27] of 107%. It also gave a viability, T/C [28] of 108%, a viability, T/C [29] of 110% and a viability, T/C [30] of 119%. It also gave a viability, T/C [31] of 107%, a viability, T/C [32] of 114% and a viability, T/C [33] of 107%. The viability, T/C [34] was 114%, the viability, T/C [35] was 123% and the viability, T/C [36] was 94.2%.

`COc1cccc(OCCCN)c1-c1cc(Nc2cnc(C#N)cn2)n[nH]1` + Cc1cccc(N(C)C(=O)C2C(O)CCN2c2nc(C)cc(C(F)(F)F)c2C#N)c1 gave a pIC50 (second compound 0.0316 µM) of 6.17, a pIC50 (second compound 0.1 µM) of 6.14 and a pIC50 (second compound 0.316 µM) of 6.06. It also gave a pIC50 (second compound 1 µM) of 6.00, a pIC50 (second compound 3.16 µM) of 6.08 and a pIC50 (second compound 10 µM) of 6.20. For the same compound, the viability, T/C [37] was 113%, the viability, T/C [38] was 104% and the viability, T/C [1] was 90.1%. The viability, T/C [2] was 85.2%, the viability, T/C [3] was 61.2% and the viability, T/C [4] was 42.8%. It also gave a viability, T/C [39] of 111%, a viability, T/C [40] of 95.8% and a viability, T/C [7] of 104%. The viability, T/C [8] was 88.2%, the viability, T/C [9] was 62.2% and the viability, T/C [10] was 45.4%. It also gave a viability, T/C [41] of 105%, a viability, T/C [42] of 99.6% and a viability, T/C [13] of 91.5%. For the same compound, the viability, T/C [14] was 94%, the viability, T/C [15] was 71.4% and the viability, T/C [16] was 47%. It also gave a viability, T/C [43] of 96.2%, a viability, T/C [44] of 101% and a viability, T/C [19] of 96.7%. For the same compound, the viability, T/C [20] was 83%, the viability, T/C [21] was 76.7% and the viability, T/C [22] was 49.1%. It also gave a viability, T/C [45] of 110%, a viability, T/C [46] of 108% and a viability, T/C [25] of 89.3%. The viability, T/C [26] was 94.8%, the viability, T/C [27] was 79.9% and the viability, T/C [28] was 43.4%. For the same compound, the viability, T/C [47] was 93.7%, the viability, T/C [48] was 96.4% and the viability, T/C [31] was 91.6%. It also gave a viability, T/C [32] of 76.1%, a viability, T/C [33] of 55% and a viability, T/C [34] of 46.5%.

Work on `Cn1ncnc1[C@H]1c2n[nH]c(=O)c3cc(F)cc(c23)N[C@@H]1c1ccc(F)cc1` + Cc1cccc(N(C)C(=O)C2C(O)CCN2c2nc(C)cc(C(F)(F)F)c2C#N)c1 yielded a pIC50 (second compound 0.0316 µM) of less than 7.00, a pIC50 (second compound 0.1 µM) of less than 7.00 and a pIC50 (second compound 0.316 µM) of less than 7.00. The pIC50 (second compound 1 µM) was less than 7.00, the pIC50 (second compound 3.16 µM) was less than 7.00 and the pIC50 (second compound 10 µM) was less than 7.00. It also gave a viability, T/C (second compound 0.0316 µM, first compound 0.000316 µM) of 84.3%, a viability, T/C (second compound 0.0316 µM, first compound 0.001 µM) of 112% and a viability, T/C [37] of 123%. It also gave a viability, T/C [38] of 93.3%, a viability, T/C [1] of 124% and a viability, T/C [2] of 112%. The viability, T/C (second compound 0.1 µM, first compound 0.000316 µM) was 105%, the viability, T/C (second compound 0.1 µM, first compound 0.001 µM) was 130% and the viability, T/C [39] was 98.4%. It also gave a viability, T/C [40] of 83.8%, a viability, T/C [7] of 91.8% and a viability, T/C [8] of 86.9%. It also gave a viability, T/C (second compound 0.316 µM, first compound 0.000316 µM) of 97.9%, a viability, T/C (second compound 0.316 µM, first compound 0.001 µM) of 128% and a viability, T/C [41] of 101%. For the same compound, the viability, T/C [42] was 92.7%, the viability, T/C [13] was 110% and the viability, T/C [14] was 99.4%. It also gave a viability, T/C (second compound 1 µM, first compound 0.000316 µM) of 92.1%, a viability, T/C (second compound 1 µM, first compound 0.001 µM) of 110% and a viability, T/C [43] of 101%. The viability, T/C [44] was 104%, the viability, T/C [19] was 99.7% and the viability, T/C [20] was 115%. It also gave a viability, T/C (second compound 3.16 µM, first compound 0.000316 µM) of 103%, a viability, T/C (second compound 3.16 µM, first compound 0.001 µM) of 113% and a viability, T/C [45] of 106%. The viability, T/C [46] was 78.5%, the viability, T/C [25] was 91.7% and the viability, T/C [26] was 106%. It also gave a viability, T/C (second compound 10 µM, first compound 0.000316 µM) of 105%, a viability, T/C (second compound 10 µM, first compound 0.001 µM) of 114% and a viability, T/C [47] of 92.9%. The viability, T/C [48] was 74.8%, the viability, T/C [31] was 106% and the viability, T/C [32] was 92.5%.

Work on `O=C(c1cc(Cc2n[nH]c(=O)c3ccccc23)ccc1F)N1CCN(C(=O)C2CC2)CC1` + Cc1cccc(N(C)C(=O)C2C(O)CCN2c2nc(C)cc(C(F)(F)F)c2C#N)c1 yielded a pIC50 (second compound 0.0316 µM) of less than 5.00, a pIC50 (second compound 0.1 µM) of less than 5.00 and a pIC50 (second compound 0.316 µM) of less than 5.00. For the same compound, the pIC50 (second compound 1 µM) was less than 5.00, the pIC50 (second compound 3.16 µM) was less than 5.00 and the pIC50 (second compound 10 µM) was less than 5.00. For the same compound, the viability, T/C [1] was 105%, the viability, T/C [2] was 99.1% and the viability, T/C [3] was 92.4%. For the same compound, the viability, T/C [4] was 105%, the viability, T/C [5] was 79.5% and the viability, T/C [6] was 79.3%. It also gave a viability, T/C [7] of 101%, a viability, T/C [8] of 104% and a viability, T/C [9] of 93.2%. It also gave a viability, T/C [10] of 84.4%, a viability, T/C [11] of 87.1% and a viability, T/C [12] of 99%. For the same compound, the viability, T/C [13] was 92.5%, the viability, T/C [14] was 118% and the viability, T/C [15] was 96%. The viability, T/C [16] was 99.3%, the viability, T/C [17] was 90% and the viability, T/C [18] was 72%. The viability, T/C [19] was 90.2%, the viability, T/C [20] was 91.3% and the viability, T/C [21] was 91.5%. It also gave a viability, T/C [22] of 111%, a viability, T/C [23] of 107% and a viability, T/C [24] of 91.4%. For the same compound, the viability, T/C [25] was 80.8%, the viability, T/C [26] was 95.3% and the viability, T/C [27] was 92.8%. It also gave a viability, T/C [28] of 80.4%, a viability, T/C [29] of 108% and a viability, T/C [30] of 95.8%. It also gave a viability, T/C [31] of 96.5%, a viability, T/C [32] of 101% and a viability, T/C [33] of 86.1%. For the same compound, the viability, T/C [34] was 100%, the viability, T/C [35] was 106% and the viability, T/C [36] was 90.4%.
